Assays:
Format in all cases: biochemical
[1] = Superoxide scavenging assay; details: for % Inhibition superoxide: 590 nm
Procedure: (§1) All samples were evaluated for their scavenging ability with the help of UV-visible spectrophotometer at different concentrations of 40, 80, 120, 160, 200, and 240 μM [6, 28]. While performing the antioxidant properties for the DPPH, hydroxyl, superoxide, and nitric oxide radical scavenging, the absorbance at 517, 230, 590, and 546 nm, respectively, was closely observed. In addition, the observed IC50 values of all samples were compared with ascorbic acid.
A vital enzyme catalyst in the body's defence against free radicals, superoxide dismutase (SOD) quickly and efficiently reduces toxicity and cellular damage by exchanging superoxide with water (or) harmless molecules. The % of inhibition for all substances was analyzed at 590 nm. The outcomes were obtained in the subsequent order: (ascorbic acid) 84.85 > (1a) 67.17 > (2a) 58.18 > (HL) 50.42.

[2] = Hydroxyl radical scavenging assay; details: for % Inhibition hydroxyl radical: 230 nm
Procedure: as §1
Hydrogen peroxide receives electrons from antioxidant molecules and then neutralizes them into a water molecule. ^●OH inhibition capability was determined from the % of inhibition for all test substances at 230 nm.

[3] = Nitric oxide scavenging assay; details: for % Inhibition nitric oxide: 546 nm
Procedure: as §1
The diffusible nitric oxide free radical is a crucial chemical mediator, which assists in overcoming diverse chronological human diseases. The NO free radical scavenging potential for all test samples was also carried out at 546 nm. It monitored the alterations in electronic absorption intensity of the nitric oxide radical inhibition outcome concerning the sample concentrations. When the test sample concentration rises, the nitric oxide free inhibition effectiveness also increases. The measured % of nitric oxide radical scavenging capability for all samples at 240 μM was obtained in the subsequent order (ascorbic acid) 72.73 > (1a) 65.47 > (2a) 58.43 > (HL) 51.62.

[4] = DPPH radical scavenging assay; details: for % Inhibition DPPH: 517 nm
Procedure: as §1
The colour of an aqueous or methanol solution changes from deep purple to pale yellow when DPPH, a stable chromogen free radical, combines with an antioxidant molecule, which means that DPPH quickly absorbs the hydrogen or electrons from the donor groups. In this case, for the baseline correction, a blank DPPH solution in the absence of a test compound was employed, and 517 nm (ε = 8320 M^−1·cm^−1) was attained to have a significant absorption maximum. […] The DPPH radicals are reduced by an antioxidant compound (AH), in which the reduction of electronic absorbance for each compound was vigilantly noted at 517 nm. The capacity to block radicals improves as the sample concentration increases. The assessed percentage of maximum inhibition for all substances was found at 240 μM in the subsequent order: (ascorbic acid) (85.65) > (1a) 68.64 > (2a) 59.55 > (HL) 52.45. […] Moreover, the % of scavenging or maximum inhibition for all substances is estimated with the aid of equation (44) (Table S14).(43) Scavanging%=A0−AS/A0×100

In the case of `O=C1O[C@H]([C@@H](O)CO)C(O)=C1O` [Ascorbic acid, reference compound], the IC50 [1] is reported as 120 µM, the “% Inhibition superoxide” value ([1]; 40 µM) is reported as 29.64% and the “% Inhibition superoxide” value ([1]; 80 µM) is reported as 41.72%. For the same molecule, the “% Inhibition superoxide” value ([1]; 120 µM) was 55.63%, the “% Inhibition superoxide” value ([1]; 160 µM) was 66.75% and the “% Inhibition superoxide” value ([1]; 200 µM) was 72.55%. For the same molecule, the “% Inhibition superoxide” value ([1]; 240 µM) was 84.85%, the IC50 [2] was 160 µM and the “% Inhibition hydroxyl radical” value ([2]; 40 µM) was 20.73%. For the same molecule, the “% Inhibition hydroxyl radical” value ([2]; 80 µM) was 36.46%, the “% Inhibition hydroxyl radical” value ([2]; 120 µM) was 47.87% and the “% Inhibition hydroxyl radical” value ([2]; 160 µM) was 59.65%. The “% Inhibition hydroxyl radical” value ([2]; 200 µM) was 65.64%, the “% Inhibition hydroxyl radical” value ([2]; 240 µM) was 78.83% and the IC50 [3] was 160 µM. For the same molecule, the “% Inhibition nitric oxide” value ([3]; 40 µM) was 28.55%, the “% Inhibition nitric oxide” value ([3]; 80 µM) was 35.75% and the “% Inhibition nitric oxide” value ([3]; 120 µM) was 43.65%. For the same molecule, the “% Inhibition nitric oxide” value ([3]; 160 µM) was 52.68%, the “% Inhibition nitric oxide” value ([3]; 200 µM) was 63.72% and the “% Inhibition nitric oxide” value ([3]; 240 µM) was 72.73%. For the same molecule, the IC50 [4] was 80 µM, the “% Inhibition DPPH” value ([4]; 40 µM) was 41.63% and the “% Inhibition DPPH” value ([4]; 80 µM) was 53.74%. The “% Inhibition DPPH” value ([4]; 120 µM) was 58.95%, the “% Inhibition DPPH” value ([4]; 160 µM) was 70.86% and the “% Inhibition DPPH” value ([4]; 200 µM) was 82.75%. For the same molecule, the “% Inhibition DPPH” value ([4]; 240 µM) was 85.65%.
